Columns and labels:
[1] = Lipophilicity, log D of the compound by shake flask method; format: physicochemical; conditions: octanol/water
[2] = target: 80S Ribosome; experiment: Binding affinity to 80S ribosome in human HeLa cells lysates using human full length PCSK9 encoding mRNAs assessed as inhibition of PCSK9 mRNA translation after 45 mins by Steady-Glo luciferase reporter gene assay; format: cell-free
[3] = Permeability in RRCK cells measured up to 1.5 hrs; format: ADME, cell-based, Canis lupus familiaris, MDCKII-LE; conditions: dog, MDCK; read-out: permeability
[4] = target: 80S Ribosome; experiment: Binding affinity to 80S ribosome in human HuH7 cells harboring human PCSK9 (1 to 152 residues)-proLuc assessed as inhibition of PCSK9 mRNA translation after overnight incubation by luciferase reporter gene assay; format: cell-based; conditions: huh-7
[5] = Intrinsic clearance in human liver microsomes; format: ADME, Microsome; conditions: read-out: CLH
[6] = target: Voltage-gated inwardly rectifying potassium channel KCNH2 (Homo sapiens, UniProt Q12809); experiment: Binding affinity to human ERG by dofetilide fluorescence polarization binding assay
Voltage-gated inwardly rectifying potassium channel KCNH2, sequence (Q12809 whole entry): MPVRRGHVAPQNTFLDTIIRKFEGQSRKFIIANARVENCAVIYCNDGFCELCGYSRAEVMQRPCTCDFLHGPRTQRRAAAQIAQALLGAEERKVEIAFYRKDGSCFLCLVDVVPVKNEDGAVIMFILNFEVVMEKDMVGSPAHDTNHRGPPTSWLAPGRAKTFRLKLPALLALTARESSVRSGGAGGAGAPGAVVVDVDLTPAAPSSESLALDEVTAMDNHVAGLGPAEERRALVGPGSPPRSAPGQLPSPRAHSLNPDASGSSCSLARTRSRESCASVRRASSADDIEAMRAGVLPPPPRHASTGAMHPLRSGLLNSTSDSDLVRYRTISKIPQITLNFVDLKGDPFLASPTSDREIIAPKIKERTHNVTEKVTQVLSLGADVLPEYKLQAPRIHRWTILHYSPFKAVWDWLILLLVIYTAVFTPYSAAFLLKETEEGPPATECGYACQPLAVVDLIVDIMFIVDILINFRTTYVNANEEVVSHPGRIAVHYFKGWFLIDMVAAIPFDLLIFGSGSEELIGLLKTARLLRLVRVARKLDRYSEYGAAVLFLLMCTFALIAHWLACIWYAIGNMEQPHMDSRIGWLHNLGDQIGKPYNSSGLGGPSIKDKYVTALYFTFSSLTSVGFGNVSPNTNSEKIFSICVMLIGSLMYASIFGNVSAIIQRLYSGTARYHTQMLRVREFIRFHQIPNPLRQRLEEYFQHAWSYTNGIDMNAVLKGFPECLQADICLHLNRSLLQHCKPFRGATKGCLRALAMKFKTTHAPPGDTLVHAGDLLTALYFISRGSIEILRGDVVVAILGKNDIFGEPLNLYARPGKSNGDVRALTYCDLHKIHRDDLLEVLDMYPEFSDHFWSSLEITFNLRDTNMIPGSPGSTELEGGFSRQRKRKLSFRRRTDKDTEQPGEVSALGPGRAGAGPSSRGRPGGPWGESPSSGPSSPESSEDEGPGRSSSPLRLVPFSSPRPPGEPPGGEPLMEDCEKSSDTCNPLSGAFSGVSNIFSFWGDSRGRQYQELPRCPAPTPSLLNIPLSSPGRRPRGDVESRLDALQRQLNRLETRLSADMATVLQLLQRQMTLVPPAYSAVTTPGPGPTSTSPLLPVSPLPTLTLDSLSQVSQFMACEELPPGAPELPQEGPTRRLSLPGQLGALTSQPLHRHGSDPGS

[7] = system: Bone marrow cell; experiment: Cytotoxicity against rat bone marrow cells assessed as reduction in cell viability after 72 hrs by celltiter glo assay; format: cell-based

SMILES | logD [1] | IC50 [2] | Papp at 1.5 h [3] | IC50 [4] | microsomal CLint [5] | Ki [6] | IC50 [7]
COc1ccc(CCC(=O)N(c2nccc3ccccc23)[C@@H]2CCCNC2)cc1 | 1 | 8.04 µM |  |  |  |  | 
O=C(c1ccc(-c2ccccc2)cc1)N(c1nccc2ccccc12)[C@@H]1CCCNC1 |  |  | 0.3 ×10⁻⁶ cm/s |  |  |  | 
O=C(N1CCC(c2cnn3cccnc23)CC1)N(c1ncccc1Cl)[C@@H]1CCCNC1 | -0.5 |  | 1.8 ×10⁻⁶ cm/s | > 20 µM | < 8 µL/min/mg |  | 
O=C(N1CCC(c2ccccc2)CC1)N(c1ncccc1Cl)[C@@H]1CCCNC1 | 0.9 | 2.08 µM | 12.8 ×10⁻⁶ cm/s | 2.21 µM | < 9.3 µL/min/mg | 14.3 µM | 
O=C(N1CCN(c2ccccc2)CC1)N(c1nccc2ccccc12)[C@@H]1CCCNC1 | 0.8 |  | 5.8 ×10⁻⁶ cm/s | 12.6 µM | 13.8 µL/min/mg | 9.2 µM | 
Cc1nccnc1N(C(=O)N1CCC(c2ccccc2)CC1)[C@@H]1CCCNC1 | 0.3 | 3.63 µM | 11.5 ×10⁻⁶ cm/s |  | < 8 µL/min/mg | 24.8 µM | > 100 µM
Cc1ccc2c(N3CCN(C(=O)N(c4nccc5ccccc45)[C@@H]4CCCNC4)CC3)noc2c1 | 1.6 |  | 8.9 ×10⁻⁶ cm/s | 3.5 µM | 12.9 µL/min/mg | 1.2 µM | 31.1 µM
Cc1cccnc1N(C(=O)N1CCC(c2ccccc2F)CC1)[C@@H]1CCCNC1 | 1 | 4.38 µM | 9.5 ×10⁻⁶ cm/s |  | < 8 µL/min/mg | 9.8 µM | 46.2 µM
Cc1cnc2c(c1)nnn2-c1ccc(CCC(=O)N(c2ncccc2Cl)[C@@H]2CCCNC2)nc1 | 0.7 | 2.27 µM | 6.2 ×10⁻⁶ cm/s | 0.85 µM | 9.3 µL/min/mg | 5.9 µM | 27.1 µM
O=C(N1CCC(c2ccccc2)CC1)N(c1nccc2ccccc12)[C@@H]1CCCNC1 | 1.4 | 1.54 µM | 3.9 ×10⁻⁶ cm/s | 1.73 µM | 13.9 µL/min/mg | 4.1 µM | 12.7 µM
Cc1cccnc1N(C(=O)N1CCC(c2cnn3cccnc23)CC1)[C@@H]1CCCNC1 | 0.2 | 0.92 µM | 1.8 ×10⁻⁶ cm/s |  | < 8 µL/min/mg | > 40 µM | 10.1 µM
Cn1ccc2ccnc(N(C(=O)N3CCC(c4ccccc4)CC3)[C@@H]3CCCNC3)c21 | 1.4 | 0.5 µM | 5.2 ×10⁻⁶ cm/s |  | 11.8 µL/min/mg | 5.7 µM | 11.7 µM
Cc1cccnc1N(C(=O)N1CCC(c2ccccc2)CC1)[C@@H]1CCCNC1 | 0.7 | 2.33 µM | 8.7 ×10⁻⁶ cm/s | 2.05 µM | < 8 µL/min/mg | > 25 µM | 
